# Results: patent US4867737A, “Derivatives of 4-phenyl-4-oxo-2-butenoic acid their preparation process, their use as medicaments and compositions containing them” (Roussel UCLAF, priority 1986, dated 1989)
# Key:
# [1] = tested on: total acidity of the gastric secretions; assay: Anti-gastric secretory activity (pylorus ligature, Shay technique); format: in vivo, rat; conditions: male rats, intraduodenal, 10 mg/kg, 3 hours
# Protocol: (1) Determination of the anti-gastric secretory activity.
# The technique used is described by H. SHAY et al in Gastroenterology 5, 43, 1945.
# Male rats are used weighing about 200 g (10 animals per group), deprived of nourishment for 48 hours, but having as much as desired of an 8% glucose solution. The pylorus of the rats is ligatured, the rats having been lightly anesthetized with ether. Then, at the end of the operation, the compounds under test are administered at various doses, or for the control animals, a 0.5% carboxymethyl cellulose solution is administered by intraduodenal route. Then the abdominal incision is sutured.
# Three hours later, the animals are killed and their stomachs are removed after ligature of the oesophagus. The gastric juice is removed and centrifuged. Then the volume is measured; and on 100 μl of gastric juice, the total acidity is determined by titration at pH 7 with N/10 sodium hydroxide.
# The percentages of variation of total acidity of the gastric secretions are calculated in relation to the results obtained with the control animals.
# [2] = tested on: ulcers in the stomachs of the rats; assay: Anti-ulcer activity, ulcer from stress (constraint and cold); format: in vivo, rat; conditions: female rats, by probang, 10 mg/kg
# Protocol: (2) Determination of anti-ulcer activity
# The technique consists of inducing ulcers in the stomachs of the rats through stress (constraint and cold.)
# The technique used is described by E. C. SENAY and R. J. LEVINE, Proc. Soc. Exp. Biol. 124, 1221 (1967).
# Female rats weighing 150 g are used (5 animals per group), starved for 48 hours with water "ad libitum" and glucose solution for 8 hours. The animals receive the product under test by a probang, or the control animals receive a 0.5% carboxymethyl cellulose solution.
# Two hours later, the animals are wrapped up in a wire-netting jacket, their paws are bound and the whole is placed in a refrigerator at 8° C. for two hours. The rats are freed and killed with ether.
# Their stomachs are removed, opened along the greater curvature and examined by means of a binocular magnifier; the seriousness of the lesions is rated from 0 to 3 for each stomach.
# For each group of rats the average intensity of the ulcerations is calculated, then for each group the degree of ulceration in relation to the controls is determined.
# Product 1 is the product of Example 1; Product p is the product of Example 1 of U.S. Pat. No. 4,473,583.
# [3] = Acute toxicity (LD50), oral route; conditions: in vivo, mouse
# Protocol: (3) Determination of actute toxicity
# The lethal dose 50 (LD50) was evaluated after administration of the products by oral route to a mouse.
Structure (SMILES),Anti-secretory activity: Acid Concentration (% variation in relation to the controls) [1],Anti-ulcer activity: Ulceration (% variation in relation to the controls) [2],LD50 [3]
"COc1ccccc1C(=O)/C=C/C(=O)O [Product 1, (E) 4-(2-methoxyphenyl)-4-oxo-2-butenoic acid]",-78%,-80%,370 mg/kg
O=C(O)C=CC(=O)c1ccccc1 [p],-66%,-54%,250 mg/kg
